# Laboratory results reported in ChEMBL document CHEMBL5131530, “5-Oxopyrrolidine-3-carboxamides as Nav1.8 Inhibitors for Treating Pain Disorders, Cough Disorders, and Acute and Chronic Itch Disorders” (ACS Med Chem Lett, 2022).
# Target: Sodium channel protein type 10 subunit alpha (Homo sapiens, UniProt Q9Y5Y9)
# Test: Inhibition of human Nav1.8 channel stably expressed in HEK293 cells assessed as sodium current flow at holding potential of -90mV by whole-cell voltage clamp assay
# Assay type: cell-based
# Sodium channel protein type 10 subunit alpha, sequence (Q9Y5Y9 whole entry, looked up): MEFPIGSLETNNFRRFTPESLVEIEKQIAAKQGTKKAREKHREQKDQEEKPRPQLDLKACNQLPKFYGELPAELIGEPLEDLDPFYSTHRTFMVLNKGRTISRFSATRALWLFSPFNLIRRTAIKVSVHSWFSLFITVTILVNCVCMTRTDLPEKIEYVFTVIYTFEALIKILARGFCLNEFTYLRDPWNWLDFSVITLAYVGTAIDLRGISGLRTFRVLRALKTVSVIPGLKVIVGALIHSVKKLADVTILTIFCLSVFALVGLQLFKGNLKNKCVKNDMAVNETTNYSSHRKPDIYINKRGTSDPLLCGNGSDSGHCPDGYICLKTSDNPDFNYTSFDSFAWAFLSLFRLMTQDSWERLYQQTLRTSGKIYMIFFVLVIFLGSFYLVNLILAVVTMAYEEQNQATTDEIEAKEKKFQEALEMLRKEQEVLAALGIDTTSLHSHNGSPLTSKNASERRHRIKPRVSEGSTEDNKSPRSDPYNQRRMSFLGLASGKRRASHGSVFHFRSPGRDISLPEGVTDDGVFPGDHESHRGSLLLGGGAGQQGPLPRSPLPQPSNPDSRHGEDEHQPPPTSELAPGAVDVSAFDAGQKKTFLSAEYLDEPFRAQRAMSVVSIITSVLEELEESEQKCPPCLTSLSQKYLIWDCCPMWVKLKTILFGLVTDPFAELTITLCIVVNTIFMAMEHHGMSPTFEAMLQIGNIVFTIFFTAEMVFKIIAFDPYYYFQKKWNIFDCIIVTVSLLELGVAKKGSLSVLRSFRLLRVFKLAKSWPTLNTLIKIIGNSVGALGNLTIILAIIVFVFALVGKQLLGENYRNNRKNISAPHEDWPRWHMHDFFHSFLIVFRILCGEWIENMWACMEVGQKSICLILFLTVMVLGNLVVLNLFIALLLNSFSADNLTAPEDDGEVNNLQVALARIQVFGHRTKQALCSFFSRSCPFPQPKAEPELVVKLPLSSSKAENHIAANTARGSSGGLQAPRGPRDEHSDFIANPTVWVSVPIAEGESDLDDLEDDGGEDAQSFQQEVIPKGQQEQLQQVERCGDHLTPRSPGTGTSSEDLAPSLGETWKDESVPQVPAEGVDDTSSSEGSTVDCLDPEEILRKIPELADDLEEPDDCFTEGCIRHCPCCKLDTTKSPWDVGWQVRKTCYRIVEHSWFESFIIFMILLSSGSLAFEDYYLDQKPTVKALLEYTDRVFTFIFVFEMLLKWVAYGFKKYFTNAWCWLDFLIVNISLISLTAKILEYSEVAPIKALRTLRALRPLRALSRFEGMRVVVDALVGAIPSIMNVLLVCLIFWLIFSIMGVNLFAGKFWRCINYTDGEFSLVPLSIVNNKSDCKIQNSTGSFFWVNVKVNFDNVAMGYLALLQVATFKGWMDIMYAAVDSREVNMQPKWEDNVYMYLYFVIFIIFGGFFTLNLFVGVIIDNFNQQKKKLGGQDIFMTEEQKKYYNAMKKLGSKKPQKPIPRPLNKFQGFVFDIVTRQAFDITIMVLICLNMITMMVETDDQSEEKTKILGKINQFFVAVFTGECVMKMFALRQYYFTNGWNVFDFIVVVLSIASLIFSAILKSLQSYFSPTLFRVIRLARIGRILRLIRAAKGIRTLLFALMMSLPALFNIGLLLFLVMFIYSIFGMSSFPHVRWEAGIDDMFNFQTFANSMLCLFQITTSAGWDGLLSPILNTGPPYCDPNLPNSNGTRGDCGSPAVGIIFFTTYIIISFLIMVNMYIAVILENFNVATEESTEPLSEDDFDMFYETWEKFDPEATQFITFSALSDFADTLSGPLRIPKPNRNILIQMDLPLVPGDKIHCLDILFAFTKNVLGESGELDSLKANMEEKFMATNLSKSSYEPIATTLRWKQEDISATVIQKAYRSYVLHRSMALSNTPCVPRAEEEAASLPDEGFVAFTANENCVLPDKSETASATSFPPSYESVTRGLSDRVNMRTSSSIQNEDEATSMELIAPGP
row,IC50,Structure (SMILES)
1,3.4 nM,O=C1C[C@H](C(=O)NC(c2ccc(Cl)cc2)c2ccc(F)c(Cl)c2)CN1 (stereo partly specified)
2,2.6 nM,O=C1C[C@H](C(=O)NC(c2ccc(Cl)cc2)c2ccc(F)c(C(F)(F)F)c2)CN1 (stereo partly specified)

# Continued, compound first:
row,Structure (SMILES),IC50
1,O=C1C[C@H](C(=O)NC(c2ccc(Cl)cc2)c2ccc(Cl)c(C(F)(F)F)c2)CN1 (stereo partly specified),1.2 nM
2,O=C1C[C@H](C(=O)NC(c2ccc(Cl)cc2)c2ccc(OC(F)(F)F)cc2)CN1 (stereo partly specified),4.1 nM
3,O=C1C[C@H](C(=O)NC(c2ccc(F)c(Cl)c2)c2ccc(F)c(C(F)(F)F)n2)CN1 (stereo partly specified),2.9 nM
4,O=C1C[C@H](C(=O)NC(c2cnc(C(F)(F)F)c(Cl)c2)c2ccc(F)c(Cl)c2F)CN1 (stereo partly specified),4.2 nM
